Data on 68 compounds can be found in patent publication US20100081679A1, “DIAMINOPYRIMIDINES AS FUNGICIDES” (Bayer CropScience AG, priority 2007, published 2010).

A short description of the data set: logP determination via retention times, calibrated with unbranched alkan-2-ones. The format is physicochemical.
The mark [1] stands for this setting: method *: HPLC, reversed-phase C 18, 40° C., mobile phase 0.1% aqueous formic acid and acetonitrile, linear gradient from 10% to 95% acetonitrile.
[2] abbreviates: HPLC on reversed-phase C18, method *: 40° C., 0.1% aqueous formic acid and acetonitrile, linear gradient 10% to 95% acetonitrile.
Setting [3] is: method *: HPLC reversed-phase C18, 40° C., 0.1% aqueous formic acid and acetonitrile, linear gradient 10% to 95% acetonitrile.
[4] abbreviates: HPLC on reversed-phase C18 column (EEC Directive 79/831 Annex V.A8), method *: 40° C., 0.1% aqueous formic acid and acetonitrile, linear gradient 10% to 95% acetonitrile.
The mark [5] stands for this setting: HPLC reversed-phase C 18, EEC Directive 79/831 Annex V.A8, method *: 40° C., 0.1% aqueous formic acid and acetonitrile, linear gradient 10% to 95% acetonitrile.
[6] abbreviates: method **: HPLC, reversed-phase C 18, 43° C., mobile phase 0.1% aqueous phosphoric acid and acetonitrile, linear gradient from 10% to 95% acetonitrile.
The mark [7] stands for this setting: HPLC on reversed-phase C18, method *: 40° C., mobile phase 0.1% aqueous formic acid and acetonitrile, linear gradient 10% to 95% acetonitrile.
The mark [8] stands for this setting: method *: HPLC reversed-phase C 18, temperature 40° C., mobile phase 0.1% aqueous formic acid and acetonitrile, linear gradient 10% to 95% acetonitrile.
[9] abbreviates: method **: HPLC reversed-phase C 18, 43° C., 0.1% aqueous phosphoric acid and acetonitrile, linear gradient 10% to 95% acetonitrile.
Where [10] appears, read: HPLC on reversed-phase C 18, EEC Directive 79/831 Annex V.A8, method *: 40° C., 0.1% aqueous formic acid and acetonitrile, linear gradient 10% to 95% acetonitrile.
Where [11] appears, read: HPLC on reversed-phase C18, method **: 43° C., mobile phase 0.1% aqueous phosphoric acid and acetonitrile, linear gradient 10% to 95% acetonitrile.

Where two headings read alike, the source gives them in different places. Marks after values point to notes of the source that are not given here.

Consider `CCSC(C)c1cccc(Nc2ncc(C(F)(F)F)c(NCC3CC3)n2)c1` (centres unmarked) [compound 988], for which, under setting [1], the logP is 4.37*.
For the compound `O=C(c1ccc(Nc2ncc(C(F)(F)F)c(NCC3CC3)n2)cc1)N1CCCCC1` [compound 704], the logP under setting [2] is on record as 3.04*.
With `CNC(=O)Oc1cccc(Nc2ncc(Br)c(NCC3CC3)n2)c1` [compound 429], under setting [3], the logP is 1.68*.
Take `Brc1cnc(Nc2ccccc2)nc1NCC1CC1` [compound 189]: under setting [4], the logP is recorded as 1.93*.
For the compound `COC(=O)Nc1ccc(Nc2ncc(Cl)c(NC(C)C3CC3)n2)cc1` (centres unmarked) [compound 168], the logP under setting [2] is 1.64*.
Turning to `CC(=O)Cc1cccc(Nc2ncc(Cl)c(NCC3CC3)n2)c1` [compound 781], the logP under setting [5] is 1.67*.
Still for that read-out and setting: for `O=C1CCCCN1c1cccc(Nc2ncc(C(F)(F)F)c(NC3CC3)n2)c1` [compound 803] the value was 2.18*.
Turning to `CC(=O)N(C)c1ccc(Nc2ncc(C(F)(F)F)c(NCC3CC3)n2)cc1` [compound 202], the logP under setting [4] is 2.13*.
Take `COC(=O)Nc1cccc(Nc2ncc(Br)c(NCC3CC3)n2)c1` [compound 458]: under setting [3], the logP was 1.73*.
Regarding `CC1(C)CC1Nc1nc(Nc2ccccc2)ncc1Cl` (centres unmarked) [compound 1027], the logP is 2.37** under setting [6] and 2.37*; under setting [1].
In the case of `Clc1cc(Cl)cc(Nc2ncc(Cl)c(NC3CC3)n2)c1` [compound 291], under setting [7], the logP is 4.04*.
For the compound `O=S(=O)(c1cccc(Nc2ncc(F)c(NC3CC3)n2)c1)N1CCCCC1` [compound 588], the logP under setting [8] is 1.61*.
As to `O=C1CCCCN1Cc1cccc(Nc2ncc(Cl)c(NC3CC3)n2)c1` [compound 373], the logP under setting [3] is 1.58*.
Same read-out and setting: as for `CNC(=O)c1ccc(Nc2ncc(Br)c(NC3CC3)n2)cc1` [compound 382], the figure is 1.39*.
Take `Cc1cc(O)ccc1Nc1ncc(Cl)c(NC2CC2)n1` [compound 177]: the logP under setting [4] is listed as 1.09*.
As for `N#Cc1cccc(Nc2ncc(Cl)c(NC3CC3)n2)c1` [compound 278], the logP under setting [7] is recorded as 2.13*.
`FC(F)(F)c1ccccc1Nc1ncc(Cl)c(NC2CC2)n1` [compound 276]: the logP under setting [7] was 2.58*.
In the case of `Cc1cccc(C)c1Nc1ncc(Cl)c(NC2CC2)n1` [compound 273], the logP under setting [7] is listed as 1.59*.
On the same count and under the same terms, for `CSc1ccc(Nc2ncc(Br)c(NC3CC3)n2)cc1` [compound 353] the value was 2.18*.
As to `COc1cccc(Nc2ncc(Cl)c(NCC3CC3)n2)c1` [compound 668], under setting [2], the logP is listed as 1.97*.
On to `Brc1cnc(Nc2ccccc2)nc1NC1CC1` [Example 30], for which the logP under setting [9] was 1.8**.
For the compound `NS(=O)(=O)c1cccc(Nc2ncc(Cl)c(NC3CC3)n2)c1` [Example 15, 3-{[5-Chloro-4-(cyclopropylamino)pyrimidin-2-yl]amino}benzenesulphonamide], the chromatographic logP reads like this: (pH 2.3, read-out: logP (pH2.3)) 1.37; (reversed-phase C18 HPLC column, method **: HPLC reversed-phase C 18, 43° C., 0.1% aqueous phosphoric acid and acetonitrile, linear gradient 10% to 95% acetonitrile, read-out: logP) 1.37.
On to `Cc1cc(C)cc(Nc2ncc(Br)c(NCC3CC3)n2)c1` [compound 471], for which the logP under setting [10] is recorded as 2.36*.
As to `CC1(C(=O)Nc2ccc(Nc3ncc(Cl)c(NC4CC4)n3)cc2)CC1` [Example 64], under setting [3], the logP was 1.66*.
As to `NS(=O)(=O)c1ccc(Nc2ncc(F)c(NC3CC3)n2)cc1` [compound 46], the logP under setting [9] is recorded as 0.95**.
On to `FC(F)Oc1ccc(Nc2ncc(Br)c(NC3CC3)n2)cc1` [compound 748], for which, under setting [2], the logP is 2.21*.
With `O=S(=O)(c1ccc(Nc2ncc(Cl)c(NC3CC3)n2)cc1)N1CCOCC1` [compound 85], the logP under setting [3] is given as 2.68*.
On to `FC(F)(F)Oc1cccc(Nc2ncc(Br)c(NC3CC3)n2)c1` [compound 301], for which the logP under setting [7] was 3.68*.
Regarding `Brc1cnc(Nc2ccc(-n3ccnc3)cc2)nc1NC1CC1` [compound 501], the logP under setting [10] was 0.93*.
On to `COC(=O)Nc1cccc(Nc2ncc(C#N)c(NC3CC3)n2)c1` [compound 612], for which the logP under setting [8] is 2.06*.
As to `C=CCS(=O)(=O)c1ccc(Nc2ncc(Cl)c(NC3CC3)n2)cc1` [Example 61], the logP under setting [3] is 2.18*.
For `CC(C)(C)NC(=O)c1ccc(Nc2ncc(Br)c(NC3CC3)n2)cc1` [compound 352], under setting [7], the logP is on record as 2.18*.
`COCc1cccc(Nc2ncc(I)c(NC3CC3)n2)c1` [compound 847]: the logP under setting [5] was 1.86*.
Take `Brc1cnc(Nc2ccc3c(c2)OCO3)nc1NCC1CC1` [compound 418]: under setting [3], the logP is 1.83*.
Consider `FC(F)(F)Oc1cccc(Nc2ncc(C(F)(F)F)c(NC3CC3)n2)c1` [compound 643], for which the logP under setting [8] is on record as 4.08*.
With `CCC(CC)c1ccc(Nc2ncc(C(F)(F)F)c(NC3CC3)n2)cc1` [compound 1032], the logP under setting [1] is 4.92*.
In the case of `CC(C)OC(=O)Nc1cccc(Nc2ncc(Br)c(NC3CC3)n2)c1` [compound 331], the logP under setting [7] was 2.11*.
`N#CCc1cc(Nc2ncc(Cl)c(NCC3CC3)n2)ccc1F` [compound 816]: the logP under setting [5] is on record as 1.87*.
`CNC(=O)c1ccc(Nc2ncc(Cl)c(NCC3CC3)n2)cc1` [compound 510]: the logP under setting [10] is listed as 1.44*.
As for `COC(=O)Cc1cccc(Nc2ncc(C#N)c(NC3CC3)n2)c1` [compound 606], the logP under setting [8] is 2.39*.
The same measure, in the same setting: as for `CSc1cccc(Nc2ncc(C#N)c(NC3CC3)n2)c1` [compound 609], the figure is 2.92*.
With `C/C(=N/O)c1cccc(Nc2ncc(Cl)c(NC3CC3)n2)c1` [compound 736], the logP under setting [2] is on record as 1.52*.
`FC(F)(F)Oc1ccc(Nc2ncc(Br)c(NC3CC3)n2)cc1Cl` [compound 753]: the logP under setting [2] is reported as 4.13*.
On the same count and under the same terms, for `FC(F)Sc1ccc(Nc2ncc(Br)c(NC3CC3)n2)cc1` [Example 104] the value was 2.99*.
The same measure, in the same setting: as for `NS(=O)(=O)c1cc(Nc2ncc(Cl)c(NC3CC3)n2)ccc1Cl` [compound 949], the figure is 1.66*.
Take `CS(=O)(=O)c1ccc(Nc2ncc(C#N)c(NC3CC3)n2)cc1` [compound 605]: under setting [8], the logP was 1.92*.
As for `CCCCC(=O)Oc1ccc(Nc2ncc(Cl)c(NCC3CC3)n2)cc1` [compound 551], the logP under setting [10] is reported as 3.8*.
On the same count and under the same terms, for `O=C1Cc2cc(Nc3ncc(Cl)c(NCC4CC4)n3)ccc2N1` [compound 516] the value was 1.31*.
Turning to `CCN(CC)C(=O)c1cccc(Nc2ncc(C(F)(F)F)c(NC3CC3)n2)c1` [compound 1049], under setting [1], the logP was 2.71*.
As to `O=C(NC1CC1)c1cccc(Nc2ncc(Cl)c(NC3CC3)n2)c1` [compound 629], the logP under setting [8] is 1.39*.
On to `COC(c1cccc(Nc2ncc(C(F)(F)F)c(NC3CC3)n2)c1)C(F)(F)F` (centres unmarked) [compound 624], for which the logP under setting [8] is given as 3.74*.
For the compound `CCOC1(Nc2nc(Cl)ncc2Cl)CC1` [2,5-Dichloro-N-(1-ethoxycyclopropyl)pyrimidine-4-amine], for the setting “pH 2.3, read-out: logP (pH2.3)”, the chromatographic logP was 2.09.
In the case of `CS(=O)(=O)c1ccc(Nc2ncc(C(F)(F)F)c(NC3CC3)n2)cc1` [compound 644], under setting [8], the logP is reported as 2.36*.
With `CCOc1ccc(Nc2ncc(Cl)c(NC3CC3)n2)cc1` [compound 183], under setting [4], the logP is reported as 1.76*.
In the case of `FS(F)(F)(F)(F)c1cccc(Nc2ncc(Cl)c(NC3CC3)n2)c1` [compound 1052], under setting [6], the logP is 3.7**.
As for `CC(C)(C)OC(=O)Nc1ccc(Nc2ncc(Br)c(NC3CC3)n2)cc1` [compound 391], the logP under setting [3] is reported as 2.13*.
As for `N#Cc1ccc(Nc2ncc(Br)c(NCC3CC3)n2)cc1` [compound 475], under setting [10], the logP is listed as 2.7*.
`Clc1cnc(Nc2ccccc2Cc2ccccc2)nc1NC1CC1` [compound 890]: the logP under setting [2] was 2.21*.
Turning to `COc1ccc(CN(c2nc(Nc3ccccc3)ncc2Cl)C2CC2)cc1` [compound 1025], the logP under setting [6] is listed as 4.15**.
For the compound `Clc1ccccc1Nc1ncc(Cl)c(NC2CC2)n1` [compound 940], the logP under setting [2] was 2.6*.
Turning to `Brc1cnc(Nc2ccc(-c3cscn3)cc2)nc1NC1CC1` [compound 747], the logP under setting [2] is reported as 1.99*.
As for `Clc1cnc(Nc2ccccc2)nc1NC1CC1` [Example 2, 5-Chloro-N^4-cyclopropyl-N^2-phenylpyrimidine-2,4-diamine], the chromatographic logP reads like this: (pH 2.3, read-out: logP (pH2.3)) 1.61; (reversed-phase C18 HPLC column, method *: HPLC reversed-phase C 18, 40° C., 0.1% aqueous formic acid and acetonitrile, linear gradient 10% to 95% acetonitrile, read-out: logP) 1.61.
Regarding `CNC(=O)c1ccc(Nc2ncc(F)c(NC3CC3)n2)cc1` [compound 584], the logP under setting [8] was 1.05*.
In the case of `Cc1cc(Nc2ncc(Cl)c(NC3CC3)n2)c(C)cc1N` [compound 313], the logP under setting [11] is reported as 0.87**.
As to `N#Cc1cnc(Nc2ccc(F)cc2)nc1NC1CC1` [compound 616], the logP under setting [8] is recorded as 2.58*.
`N#CCC(=O)c1ccc(Nc2ncc(Cl)c(NC3CC3)n2)cc1` [compound 248]: the logP under setting [4] is reported as 2.09*.
Take `COCC1CCCN1C(=O)c1cccc(Nc2ncc(Cl)c(NC3CC3)n2)c1` (centres unmarked) [compound 1061]: the logP under setting [1] is 1.77*.
For the compound `O=S(=O)(Cc1ccc(Nc2ncc(Cl)c(NC3CC3)n2)cc1)N1CCOCC1` [compound 314], the logP under setting [11] is given as 1.57**.
